Measured values from PubChem BioAssay AID2050 (NMMLSC, 2009).
Calls of active or inactive are those of the source.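 How the source made its calls: active means EC50 at or below 30 µM together with a response span of at least a set limit; inactive means the rest.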

biological target: GTPase HRas (Homo sapiens) (UniProt P01112); test: activated Ras mutant GTP-binding inhibitors, SAR follow-up, biochemical, pyrazoline analogs, multiplex bead flow cytometry (AID 2050); conditions: GST-Ras beads, Bodipy-FL-GTP binding
Sequence (P01112 whole entry, looked up): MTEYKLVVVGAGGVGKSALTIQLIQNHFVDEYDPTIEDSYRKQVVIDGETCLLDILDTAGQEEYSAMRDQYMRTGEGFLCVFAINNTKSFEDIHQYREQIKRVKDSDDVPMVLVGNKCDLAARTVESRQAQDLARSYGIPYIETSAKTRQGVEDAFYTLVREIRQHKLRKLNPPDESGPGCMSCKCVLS

EC50, inactive:
COc1ccc(C2CC(c3ccc(C)cc3)=NN2c2ccc(S(N)(=O)=O)cc2)cc1 (configuration not stated) > 30 µM
Cc1cccc(N2N=C(c3ccccc3)CC2c2ccccc2)c1 (configuration not stated) > 30 µM
COc1ccc(C2=NN(c3ccccc3)C(c3ccc(OC)c(OC)c3C(=O)O)C2)cc1 (configuration not stated) > 30 µM
COc1ccc(C2CC(c3cccc(C(F)(F)F)c3)=NN2c2ccc(S(N)(=O)=O)cc2)cc1 (configuration not stated) > 30 µM
COc1ccc(C2CC(c3ccccc3)=NN2c2ccc(Cl)c(C(=O)O)c2)cc1OC (configuration not stated) > 30 µM
Cc1ccc(-c2cc(C(F)(F)F)nn2-c2ccc(S(N)(=O)=O)cc2)cc1 > 30 µM
COc1ccc(C2CC(c3ccc(F)cc3)=NN2c2ccccc2)cc1OC (configuration not stated) > 30 µM
COc1ccc(C2CC(c3ccsc3)=NN2c2ccc(S(N)(=O)=O)cc2)cc1 (configuration not stated) > 30 µM
CN(C)c1ccc(C2CC(c3ccc(F)cc3)=NN2c2ccccc2)cc1 (configuration not stated) > 30 µM
NS(=O)(=O)c1ccc(N2N=C(c3ccccc3)CC2c2cccc(Cl)c2)cc1 (configuration not stated) > 30 µM
NS(=O)(=O)c1ccc(N2N=C(c3ccccc3)CC2c2ccc(Br)cc2)cc1 (configuration not stated) > 30 µM
Brc1ccc(N2N=C(c3ccccc3)CC2c2ccccc2)cc1 (configuration not stated) > 30 µM
COc1ccc(C2CC(c3ccccc3)=NN2c2ccc(C(=O)O)cc2)cc1 (configuration not stated) > 30 µM
Fc1ccc(C2=NN(c3cccc(Br)c3)C(c3ccccc3)C2)cc1 (configuration not stated) > 30 µM
FC(F)(F)c1ccccc1C1CC(c2ccc(Br)cc2)=NN1c1ccccc1 (configuration not stated) > 30 µM
CN(C)c1ccc(C2CC(c3ccc(Cl)cc3)=NN2c2ccccc2)cc1 (configuration not stated) > 30 µM
COc1ccc(C2CC(C(C)(C)C)=NN2c2ccc(S(N)(=O)=O)cc2)cc1 (configuration not stated) > 30 µM
COc1ccc(C2CC(c3ccccc3F)=NN2c2ccc(S(N)(=O)=O)cc2)cc1 (configuration not stated) > 30 µM
Cc1ccccc1N1N=C(c2ccccc2)CC1c1ccc(N(C)C)cc1 (configuration not stated) > 30 µM
COc1ccc(C2CC(c3ccccc3)=NN2c2ccc(C(N)=O)cc2)cc1 (configuration not stated) > 30 µM
COc1ccc(C2CC(c3ccc(Cl)cc3)=NN2c2ccccc2)cc1OC (configuration not stated) > 30 µM
O=C(O)c1ccc(N2N=C(c3ccccc3)CC2c2ccccc2)cc1 (configuration not stated) > 30 µM
COc1ccc(C2=NN(c3ccccc3)C(c3ccc(Cl)cc3)C2)cc1 (configuration not stated)
FC(F)(F)c1cccc(N2N=C(c3ccc(Cl)cc3)CC2c2ccccc2Cl)c1 (configuration not stated) > 30 µM
COc1ccc(C2CC(c3ccc(F)cc3)=NN2c2cccc(F)c2)cc1OC (configuration not stated) > 30 µM
COc1ccc(C2CC(c3ccccc3C)=NN2c2ccc(S(N)(=O)=O)cc2)cc1 (configuration not stated) > 30 µM
O=[N+]([O-])c1ccc(N2N=C(c3ccccc3)CC2c2ccc(O)cc2)cc1 (configuration not stated) > 30 µM
COc1ccc(C2CC(c3cccc(Cl)c3)=NN2c2ccc(S(N)(=O)=O)cc2)cc1 (configuration not stated) > 30 µM
O=S(=O)(c1ccc(N2N=C(c3ccccc3)CC2c2ccccc2)cc1)C(F)F (configuration not stated) > 30 µM
COc1ccc(C2CC(c3cccc(F)c3)=NN2c2ccc(S(N)(=O)=O)cc2)cc1 (configuration not stated) > 30 µM
NS(=O)(=O)c1ccc(N2N=C(c3ccccc3)CC2c2ccccc2Cl)cc1 (configuration not stated) > 30 µM
COc1ccccc1C1CC(c2ccccc2)=NN1c1ccccc1 (configuration not stated) > 30 µM
NS(=O)(=O)c1ccc(N2N=C(c3ccccc3)CC2c2ccc(Cl)cc2)cc1 (configuration not stated) > 30 µM
Cc1ccccc1N1N=C(c2ccccc2)CC1c1cccc([N+](=O)[O-])c1 (configuration not stated) > 30 µM
COc1cccc(C2CC(c3ccccc3)=NN2c2ccc(S(N)(=O)=O)cc2)c1 (configuration not stated) > 30 µM
COc1ccc(C2CC(c3ccc(F)cc3)=NN2c2ccc(S(N)(=O)=O)cc2)cc1 (configuration not stated) > 30 µM
COc1ccc(C2CC(c3ccccc3Br)=NN2c2ccc(S(N)(=O)=O)cc2)cc1 (configuration not stated) > 30 µM
COc1ccc(-c2cc(-c3ccccc3)nn2-c2ccc(S(N)(=O)=O)cc2)cc1 > 30 µM
COc1ccc(C2CC(c3ccc(Cl)cc3)=NN2c2ccc(S(N)(=O)=O)cc2)cc1 (configuration not stated) > 30 µM
COc1ccc(C2=NN(c3ccccc3F)C(c3ccc(F)cc3)C2)cc1 (configuration not stated) > 30 µM
COc1ccc(C2CC(c3cccs3)=NN2c2ccc(S(N)(=O)=O)cc2)cc1 (configuration not stated) > 30 µM
COc1ccccc1C1CC(c2ccccc2)=NN1c1ccc(S(N)(=O)=O)cc1 (configuration not stated) > 30 µM
COc1ccc(C2CC(c3ccccc3OC)=NN2c2ccc(S(N)(=O)=O)cc2)cc1 (configuration not stated) > 30 µM
COc1ccc(C2CC(C)=NN2c2ccc(S(N)(=O)=O)cc2)cc1 (configuration not stated) > 30 µM
O=[N+]([O-])c1ccc(N2N=C(c3ccccc3)CC2c2ccccc2)cc1 (configuration not stated) > 30 µM
Clc1cccc(N2N=C(c3ccccc3)CC2c2ccccc2)c1 (configuration not stated) > 30 µM
Cc1ccc(C2CC(c3ccccc3)=NN2c2ccc(S(N)(=O)=O)cc2)cc1 (configuration not stated) > 30 µM
